Experiment [1] deals with T47D (PI3Kα-H1047R) cell line. Briefly: HTRF phospho-AKT(S473) cell assay in T47D cells. The experiment is classed as cell-based, human. As to conditions: Homo sapiens; T47D (PI3Kα-H1047R) cell line, phospho-AKT(S473) HTRF, 2 hours compound incubation. An outline of the steps: (§1)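 HTRF read-out of phospho-AKT(S473) in lysates gave IC50 values after 2 h compound exposure at 37° C. Dose series was 12 points at 1:3, topping at 5 μM for T47D and 10 μM for SKBR3. Only SKBR3 received 70 ng/ml PDGF-BB during the last 15 minutes.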
In general terms: TR-FRET usually uses a lanthanide donor and a delayed reading to cut background.

Experiment [2] concerns SKBR3 (PI3Kα-Wild Type) cell line. In words: HTRF phospho-AKT(S473) cell assay in SKBR3 cells. The experiment is classed as cell-based, human. As to conditions: Homo sapiens, SK-BR-3; SKBR3 (PI3Kα-Wild Type) cell line, phospho-AKT(S473) HTRF, 2 hours compound incubation, PDGF-BB stimulated. An outline of the steps: as §1

The source of these data is patent US12281122B1, “PI3K inhibitors” (Cogent Biosciences, Inc., priority 2023, dated 2025).

By IC50 is commonly meant the concentration that inhibits the measured activity by half. In the case of `Cc1cc([C@@H](C)Nc2ccc(Cl)nc2C(=O)NS(C)(=O)=O)c2nc(-c3ccc4nc(C)cn4c3)n(C)c(=O)c2c1` [Compound 844, (R)-6-chloro-3-((1-(3,6-dimethyl-2-(2-methylimidazo[1,2-a]pyridin-6-yl)-4-oxo-3,4-dihydroquinazolin-8-yl)ethyl)amino)-N-(methylsulfonyl) picolinamide], the IC50 in experiment [1] was in the range of 0.25 to 0.5 µM; in experiment [2], 1 to 5 µM.

As to `Cc1cc([C@@H](C)Nc2ccc(Cl)nc2C(=O)NS(C)(=O)=O)c2nc(C#Cc3cnn(C)c3)n(C)c(=O)c2c1` [Compound 845, (R)-6-chloro-3-((1-(3,6-dimethyl-2-((1-methyl-1H-pyrazol-4-yl)ethynyl)-4-oxo-3,4-dihydroquinazolin-8-yl)ethyl)amino)-N-(methylsulfonyl) picolinamide], the half-inhibitory concentration (IC50) is 0.5 to 1 µM in experiment [1] and at least 5 µM in experiment [2].

Take `Cc1cc([C@@H](C)Nc2ccc(Cl)nc2C(=O)NS(C)(=O)=O)c2nc(-c3ccc(OC4CCN(CC(F)(F)F)CC4)nc3)n(C)c(=O)c2c1` [Compound 846, (R)-6-chloro-3-((1-(3,6-dimethyl-4-oxo-2-(6-((1-(2,2,2-trifluoroethyl)piperidin-4-yl)oxy)pyridin-3-yl)-3,4-dihydroquinazolin-8-yl)ethyl)amino)-N-(methylsulfonyl) picolinamide]: the IC50 in experiment [1] was 0.25 to 0.5 µM; in experiment [2], at least 5 µM.

For the compound `Cc1cc([C@@H](C)Nc2ccc(Cl)nc2C(=O)NS(C)(=O)=O)c2nc(-c3ccc4nn(C)cc4c3)n(C3CC3)c(=O)c2c1` [Compound 847, (R)-6-chloro-3-((1-(3-cyclopropyl-6-methyl-2-(2-methyl-2H-indazol-5-yl)-4-oxo-3,4-dihydroquinazolin-8-yl)ethyl)amino)-N-(methylsulfonyl) picolinamide], the IC50 in experiment [1] was below 0.25 µM; in experiment [2] it was 1 to 5 µM.

Consider `Cc1cc([C@@H](C)Nc2ccc(Cl)nc2C(=O)NS(C)(=O)=O)c2nc([C@H]3[C@@H]4CNC[C@@H]43)n(C)c(=O)c2c1` [Compound 848, 3-(((R)-1-(2-((1R,5S,6r)-3-azabicyclo[3.1.0]hexan-6-yl)-3,6-dimethyl-4-oxo-3,4-dihydroquinazolin-8-yl)ethyl)amino)-6-chloro-N-(methylsulfonyl) picolinamide], for which the IC50 in experiment [1] was 1 to 5 µM; in experiment [2] it was at least 5 µM.

With `COc1nc2cc(-c3nc4c([C@@H](C)Nc5ccc(Cl)nc5C(=O)NS(C)(=O)=O)cc(C)cc4c(=O)n3C)ccc2n1C` [Compound 849, (R)-6-chloro-3-((1-(2-(2-methoxy-1-methyl-1H-benzo[d]imidazol-5-yl)-3,6-dimethyl-4-oxo-3,4-dihydroquinazolin-8-yl)ethyl)amino)-N-(methylsulfonyl) picolinamide], the IC50 was 0.25 to 0.5 µM in experiment [1] and at least 5 µM in experiment [2].

Turning to `Cc1cc([C@@H](C)Nc2ccc(Cl)nc2C(=O)NS(C)(=O)=O)c2nc(-c3ccc4nn(-c5ncccn5)cc4c3)n(C)c(=O)c2c1` [Compound 850, (R)-6-chloro-3-((1-(3,6-dimethyl-4-oxo-2-(2-(pyrimidin-2-yl)-2H-indazol-5-yl)-3,4-dihydroquinazolin-8-yl)ethyl)amino)-N-(methylsulfonyl) picolinamide], the IC50 is below 0.25 µM in experiment [1] and 1 to 5 µM in experiment [2].

As for `Cc1cnc(-c2ccc(-c3nc4c([C@@H](C)Nc5ccc(Cl)nc5C(=O)NS(C)(=O)=O)cc(C)cc4c(=O)n3C)cn2)nc1` [Compound 851, (R)-6-chloro-3-((1-(3,6-dimethyl-2-(6-(5-methylpyrimidin-2-yl)pyridin-3-yl)-4-oxo-3,4-dihydroquinazolin-8-yl)ethyl)amino)-N-(methylsulfonyl) picolinamide], the IC50 in experiment [1] is 0.25 to 0.5 µM; in experiment [2], 1 to 5 µM.

For `Cc1cc([C@@H](C)Nc2ccc(Cl)nc2C(=O)NS(C)(=O)=O)c2nc(-c3cnc(N(C)C)nc3)n(C)c(=O)c2c1` [Compound 852, (R)-6-chloro-3-((1-(2-(2-(dimethylamino)pyrimidin-5-yl)-3,6-dimethyl-4-oxo-3,4-dihydroquinazolin-8-yl)ethyl)amino)-N-(methylsulfonyl) picolinamide], the IC50 in experiment [1] was 0.25 to 0.5 µM; in experiment [2], at least 5 µM.

Consider `Cc1cc([C@@H](C)Nc2ccc(Cl)nc2C(=O)NS(C)(=O)=O)c2nc([C@H]3[C@@H]4CN(c5ccnc(C)n5)C[C@@H]43)n(C)c(=O)c2c1` [Compound 853, 6-chloro-3-(((R)-1-(3,6-dimethyl-2-((1R,5S,6r)-3-(2-methylpyrimidin-4-yl)-3-azabicyclo[3.1.0]hexan-6-yl)-4-oxo-3,4-dihydroquinazolin-8-yl)ethyl)amino)-N-(methylsulfonyl) picolinamide], for which the figures for the IC50 in experiment [1] and in experiment [2] were 0.25 to 0.5 µM and at least 5 µM, respectively.

For the compound `Cc1cc([C@@H](C)Nc2ccc(Cl)nc2C(=O)NS(C)(=O)=O)c2nc(-c3ccc(-c4cnc(C)nc4)nc3)n(C)c(=O)c2c1` [Compound 854, (R)-6-chloro-3-((1-(3,6-dimethyl-2-(6-(2-methylpyrimidin-5-yl)pyridin-3-yl)-4-oxo-3,4-dihydroquinazolin-8-yl)ethyl)amino)-N-(methylsulfonyl) picolinamide], the IC50 in experiment [1] was below 0.25 µM; in experiment [2] it was 1 to 5 µM.

As for `[2H]C([2H])([2H])n1cc(-c2ccc(-c3nc4c([C@@H](C)Nc5ccc(Cl)nc5C(=O)NS(C)(=O)=O)cc(C)cc4c(=O)n3C)cn2)cn1` [Compound 855, (R)-6-chloro-3-((1-(3,6-dimethyl-2-(6-(1-(methyl-d3)-1H-pyrazol-4-yl)pyridin-3-yl)-4-oxo-3,4-dihydroquinazolin-8-yl)ethyl)amino)-N-(methylsulfonyl) picolinamide], the half-inhibitory concentration (IC50) in experiment [1] was below 0.25 µM; in experiment [2], 1 to 5 µM.

Turning to `COc1ncc(-c2nc3c([C@@H](C)Nc4ccc(Cl)nc4C(=O)NS(C)(=O)=O)cc(C)cc3c(=O)n2C)cn1` [Compound 856, (R)-6-chloro-3-((1-(2-(2-methoxypyrimidin-5-yl)-3,6-dimethyl-4-oxo-3,4-dihydroquinazolin-8-yl)ethyl)amino)-N-(methylsulfonyl) picolinamide], the IC50 is 0.25 to 0.5 µM in experiment [1] and at least 5 µM in experiment [2].
